Assay results published in ChEMBL document CHEMBL1201862, “PubChem BioAssay data set” (2004).
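Where inhibition never reached the appropriate level, the endpoint shown equals the highest concentration tested. Otherwise, values were interpolated linearly from a five-concentration, 48-hour dose response in 96-well plates. Here, GI50 denotes the concentration required for 50% inhibition of growth.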 Active and inactive are the calls of the source. Rule as the data show it: active = GI50 up to about 1.1 µM and inactive = higher.

What was measured:
Assay in all cases: NCI anticancer screen, dose series, 48 h
HCT-116 = system: HCT-116
SF-268 = system: SF-268
TK-10 = system: TK-10
T47D = system: T47D
OVCAR-8 = system: OVCAR-8
NCI-H460 = system: NCI-H460
UO-31 = system: UO-31
MCF7 = system: MCF7
HCT-15 = system: HCT-15
UACC-257 = system: UACC-257
SK-OV-3 = system: SK-OV-3
NCI-H226 = system: NCI-H226
SK-MEL-5 = system: SK-MEL-5
RXF 393 = system: RXF 393
SNB-75 = system: SNB-75
NCI-H23 = system: NCI-H23
OVCAR-5 = system: OVCAR-5
CCRF-CEM = system: CCRF-CEM
MDA-N = system: MDA-N
A498 = system: A498
KM12 = system: KM12
MDA-MB-435 = system: MDA-MB-435
MDA-MB-231 = system: MDA-MB-231
SR = system: SR
SK-MEL-28 = system: SK-MEL-28
ACHN = system: ACHN
SF-539 = system: SF-539
BT-549 = system: BT-549
LOX IMVI = system: LOX IMVI
OVCAR-4 = system: OVCAR-4
COLO 205 = system: COLO 205
IGROV-1 = system: IGROV-1
HOP-62 = system: HOP-62
SN12C = system: SN12C
UACC-62 = system: UACC-62
SW-620 = system: SW-620
NCI/ADR-RES = system: NCI/ADR-RES
CAKI-1 = system: CAKI-1
PC-3 = system: PC-3
U-251 = system: U-251
Hs-578T = system: Hs-578T
M14 = system: M14
SK-MEL-2 = system: SK-MEL-2
DU-145 = system: DU-145
OVCAR-3 = system: OVCAR-3
786-0 = system: 786-0
K562 = system: K562
EKVX = system: EKVX
Malme-3M = system: Malme-3M
HT-29 = system: HT-29
SF-295 = system: SF-295
RPMI-8226 = system: RPMI-8226
A549 = system: A549
HL-60 = system: HL-60
HCC 2998 = system: HCC 2998
SNB-19 = system: SNB-19
NCI-H522 = system: NCI-H522
MOLT-4 = system: MOLT-4

CCOC(=O)O/C(=C\c1ccc(OC)cc1)c1c(OC(=O)OCC)n(C(=O)OCC)c2ccccc12
GI50 (HCT-116): 33.9 µM (inactive) | GI50 (SF-268): 47.1 µM (inactive) | GI50 (TK-10): 31.3 µM (inactive) | GI50 (T47D): 57.7 µM (inactive) | GI50 (OVCAR-8): 59.2 µM (inactive) | GI50 (NCI-H460): 15.1 µM (inactive) | GI50 (UO-31): 29.1 µM (inactive) | GI50 (MCF7): 25.1 µM (inactive) | GI50 (HCT-15): 7.05 µM | GI50 (UACC-257): 34.5 µM (inactive) | GI50 (SK-OV-3): 41.5 µM (inactive) | GI50 (NCI-H226): 32.9 µM (inactive) | GI50 (SK-MEL-5): 39 µM (inactive) | GI50 (RXF 393): 19.8 µM (inactive) | GI50 (SNB-75): 25.1 µM (inactive) | GI50 (NCI-H23): 27.9 µM (inactive) | GI50 (OVCAR-5): 76.9 µM (inactive) | GI50 (CCRF-CEM): 21.8 µM (inactive) | GI50 (MDA-N): 19.3 µM (inactive) | GI50 (A498): 14.2 µM (inactive) | GI50 (KM12): 7.83 µM (inactive) | GI50 (MDA-MB-435): 24.9 µM (inactive) | GI50 (MDA-MB-231): 18.5 µM (inactive) | GI50 (SR): 15.3 µM (inactive) | GI50 (SK-MEL-28): 19.6 µM (inactive) | GI50 (ACHN): 29.1 µM (inactive) | GI50 (SF-539): 34.8 µM (inactive) | GI50 (BT-549): 39.5 µM (inactive) | GI50 (LOX IMVI): 42.3 µM (inactive) | GI50 (OVCAR-4): 32.4 µM (inactive) | GI50 (COLO 205): > 100 µM (inactive) | GI50 (IGROV-1): 35.7 µM (inactive) | GI50 (HOP-62): 19.9 µM (inactive) | GI50 (SN12C): 31.6 µM (inactive) | GI50 (UACC-62): 42.7 µM (inactive) | GI50 (SW-620): 24.3 µM (inactive) | GI50 (NCI/ADR-RES): 43.9 µM (inactive) | GI50 (CAKI-1): 57.9 µM (inactive) | GI50 (PC-3): 29.2 µM (inactive) | GI50 (U-251): 24.7 µM (inactive) | GI50 (Hs-578T): 22.3 µM (inactive) | GI50 (M14): 23.6 µM (inactive) | GI50 (SK-MEL-2): 35 µM (inactive) | GI50 (DU-145): 42.2 µM (inactive) | GI50 (OVCAR-3): 59.4 µM (inactive) | GI50 (786-0): 39.5 µM (inactive) | GI50 (K562): 2.77 µM (inactive) | GI50 (EKVX): 88.9 µM (inactive) | GI50 (Malme-3M): 58.6 µM (inactive) | GI50 (HT-29): 47.3 µM (inactive) | GI50 (SF-295): 28.4 µM (inactive) | GI50 (RPMI-8226): 1.83 µM (inactive) | GI50 (A549): 34.4 µM (inactive) | GI50 (HL-60): > 100 µM (inactive)

O=C1N=C(c2ccccc2)OC1C(=O)c1ccccc1 (stereo not given)
GI50 (HCT-116): > 100 µM (inactive) | GI50 (SF-268): > 100 µM (inactive) | GI50 (TK-10): > 100 µM (inactive) | GI50 (T47D): > 100 µM (inactive) | GI50 (OVCAR-8): > 100 µM (inactive) | GI50 (NCI-H460): > 100 µM (inactive) | GI50 (UO-31): > 100 µM (inactive) | GI50 (MCF7): > 100 µM (inactive) | GI50 (HCT-15): > 100 µM | GI50 (UACC-257): > 100 µM (inactive) | GI50 (SK-OV-3): > 100 µM (inactive) | GI50 (NCI-H226): > 100 µM (inactive) | GI50 (SK-MEL-5): > 100 µM (inactive) | GI50 (RXF 393): > 100 µM (inactive) | GI50 (SNB-75): > 100 µM (inactive) | GI50 (HCC 2998): > 100 µM (inactive) | GI50 (SNB-19): > 100 µM (inactive) | GI50 (NCI-H23): > 100 µM (inactive) | GI50 (OVCAR-5): > 100 µM (inactive) | GI50 (CCRF-CEM): > 100 µM (inactive) | GI50 (MDA-N): > 100 µM (inactive) | GI50 (A498): > 100 µM (inactive) | GI50 (KM12): > 100 µM (inactive) | GI50 (MDA-MB-435): > 100 µM (inactive) | GI50 (MDA-MB-231): > 100 µM (inactive) | GI50 (SR): > 100 µM (inactive) | GI50 (SK-MEL-28): > 100 µM (inactive) | GI50 (ACHN): > 100 µM (inactive) | GI50 (BT-549): > 100 µM (inactive) | GI50 (LOX IMVI): > 100 µM (inactive) | GI50 (OVCAR-4): > 100 µM (inactive) | GI50 (COLO 205): > 100 µM (inactive) | GI50 (IGROV-1): 46.5 µM (inactive) | GI50 (HOP-62): > 100 µM (inactive) | GI50 (SN12C): > 100 µM (inactive) | GI50 (UACC-62): > 100 µM (inactive) | GI50 (SW-620): > 100 µM (inactive) | GI50 (NCI/ADR-RES): > 100 µM (inactive) | GI50 (CAKI-1): > 100 µM (inactive) | GI50 (PC-3): > 100 µM (inactive) | GI50 (U-251): > 100 µM (inactive) | GI50 (NCI-H522): > 100 µM (inactive) | GI50 (Hs-578T): > 100 µM (inactive) | GI50 (M14): > 100 µM (inactive) | GI50 (SK-MEL-2): > 100 µM (inactive) | GI50 (DU-145): > 100 µM (inactive) | GI50 (OVCAR-3): > 100 µM (inactive) | GI50 (786-0): > 100 µM (inactive) | GI50 (K562): > 100 µM (inactive) | GI50 (EKVX): > 100 µM (inactive) | GI50 (HT-29): > 100 µM (inactive) | GI50 (MOLT-4): > 100 µM (inactive) | GI50 (SF-295): > 100 µM (inactive) | GI50 (RPMI-8226): > 100 µM (inactive) | GI50 (A549): > 100 µM (inactive) | GI50 (HL-60): > 100 µM (inactive)
